Laboratory results as given in ChEMBL document CHEMBL1140586, “Design and synthesis of a functionally selective D3 agonist and its in vivo delivery via the intranasal route” (Bioorg Med Chem Lett, 2007).

How the values were obtained:
[1] = molecular target: D(3) dopamine receptor (Homo sapiens, UniProt P35462); assay: Agonist activity at human recombinant dopamine D3 receptor expressed in CHO cells assessed as inhibition of forskolin-stimulated cAMP accumulation; assay type: functional, cell-based
[2] = molecular target: D(2) dopamine receptor (Homo sapiens, UniProt P14416); assay: Agonist activity at human recombinant dopamine D2 receptor expressed in rat pituitary cells assessed as inhibition of forskolin-stimulated cAMP accumulation; assay type: functional, cell-based, Pituitary gland cell
[3] = Clearance in human; assay type: ADME, organism-based; settings: in vivo

Sequence of D(3) dopamine receptor (P35462 whole entry): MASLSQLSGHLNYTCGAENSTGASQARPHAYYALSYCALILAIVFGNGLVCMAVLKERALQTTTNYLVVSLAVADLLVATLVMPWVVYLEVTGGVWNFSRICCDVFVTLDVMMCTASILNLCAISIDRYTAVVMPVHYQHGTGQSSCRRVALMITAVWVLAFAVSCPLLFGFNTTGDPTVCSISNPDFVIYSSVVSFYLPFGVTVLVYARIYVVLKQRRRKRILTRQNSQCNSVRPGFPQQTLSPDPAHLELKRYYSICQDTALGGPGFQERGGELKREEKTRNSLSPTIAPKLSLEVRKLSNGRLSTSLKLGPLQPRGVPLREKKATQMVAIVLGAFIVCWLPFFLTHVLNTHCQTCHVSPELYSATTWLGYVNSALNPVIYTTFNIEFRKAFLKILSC
Sequence of D(2) dopamine receptor (P14416 whole entry): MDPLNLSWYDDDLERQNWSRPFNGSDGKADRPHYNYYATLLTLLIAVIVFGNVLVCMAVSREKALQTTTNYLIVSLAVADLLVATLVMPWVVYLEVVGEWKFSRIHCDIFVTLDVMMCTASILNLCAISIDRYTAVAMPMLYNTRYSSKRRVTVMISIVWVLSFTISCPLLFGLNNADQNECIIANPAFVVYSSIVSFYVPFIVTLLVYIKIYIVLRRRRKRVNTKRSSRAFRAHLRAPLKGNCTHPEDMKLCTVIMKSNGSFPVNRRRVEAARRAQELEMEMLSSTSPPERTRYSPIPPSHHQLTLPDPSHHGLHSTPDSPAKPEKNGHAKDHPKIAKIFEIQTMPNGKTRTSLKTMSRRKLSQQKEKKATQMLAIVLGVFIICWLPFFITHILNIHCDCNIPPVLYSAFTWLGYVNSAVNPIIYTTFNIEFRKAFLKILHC

SMILES	EC50 [1] [µM]	EC50 [2] [µM]	clearance [3] [mL/min/kg]
CCCN1CCOC(c2ccc(O)cc2)C1 (stereo not drawn)	> 1		
CCCN1CCOC(c2cc(O)cc(C(N)=O)c2)C1 (stereo not drawn)	> 10		
CCCN1CCOC(c2ccc(O)c(CO)c2)C1 (stereo not drawn)	> 1		
CCCN1CCC[C@@H]2Cc3nc(N)ncc3C[C@H]21 [QUINELORANE]		0.002	
CCN1CCOC(c2cccc(O)c2)C1 (stereo not drawn)	0.547	> 30	
CCCN1CCOC(c2ccc(F)c(O)c2)C1 (stereo not drawn)	0.035		
Oc1cccc(C2CNCCO2)c1 (stereo not drawn)	0.864	7.2	
CCCN1CCOC(c2cccc(Cl)c2)C1 (stereo not drawn)	> 2.8	> 10	
CCCN1CCOC(c2ccc(O)c(C(C)=O)c2)C1 (stereo not drawn)	> 1		
CCCN1CCOC(c2cccc(C#N)c2)C1 (stereo not drawn)	> 1		
CCCN1CCOC(c2ccc(O)c(C#N)c2)C1 (stereo not drawn)	> 1		
CNC[C@H](O)c1cccc(O)c1 [PHENYLEPHRINE]			30
CCCN1CCO[C@@H](c2cc(O)cc(O)c2)C1	> 10	> 10	
CCCN1CCO[C@@H](c2ccc(F)c(O)c2)C1	> 10	> 10	
CCCN1CCOC(c2cccc(SC)c2)C1 (stereo not drawn)	> 1	> 10	
CCCN1CCOC(c2cccc(-c3ncc[nH]3)c2)C1 (stereo not drawn)	> 1	> 10	
CCCN1CCOC(c2cccc(OC(F)(F)F)c2)C1 (stereo not drawn)	> 1	> 1	
CCCN1CCOC(c2cccc(-c3nnc[nH]3)c2)C1 (stereo not drawn)	> 1		
C=CCN1CCOC(c2cccc(O)c2)C1 (stereo not drawn)	1.31	> 100	
CCCN1CCOC(c2cccc(S(C)(=O)=O)c2)C1 (stereo not drawn)	> 1	> 10	
CCCN1CCOC(c2cc(O)ccc2Br)C1 (stereo not drawn)	> 10		
CCCN1CCOC(c2ccc(O)c(NS(C)(=O)=O)c2)C1 (stereo not drawn)	> 1		
CCCN1CCOC(c2cccc(C(=O)OC)c2)C1 (stereo not drawn)	> 1		
